Measurements as given in article PMC10460844, “Real‐Time Monitoring of Multitarget Antimicrobial Mechanisms of Peptoids Using Label‐Free Imaging with Optical Diffraction Tomography” (Advanced Science, 2023).
Square brackets hold non-standard residues; d marks the D form. Peptide text beside a SMILES is read from it. Gly(N(CH2)2(3-indolyl)) = O=C(O)CNCCc1c[nH]c2ccccc12; Nspe = C[C@H](NCC(=O)O)c1ccccc1; Nphe = O=C(O)CNCc1ccccc1; Nlys = NCCCCNCC(=O)O

What was measured:
[1] = Analytical reversed-phase HPLC elution (hydrophobicity); assay type: physicochemical; conditions: Table S1; analytical RP-HPLC, SunFire C18, water/ACN + 0.1% TFA, 5 to 100% B linear over 30 min, 1 mL/min, UV 220 nm; approximate comparison of hydrophobicity
Outline: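 Analytical reversed-phase HPLC on a C18 column (4.6 × 250 mm, 5 μm) at 1 mL/min, water/acetonitrile each with 0.1% TFA. Held at 5% B for 2 min, then linear to 100% B over 30 min and held 5 min, with UV detection at 220 nm; retention time (tR) serves as hydrophobicity measure.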

[2] = system: rat erythrocytes; assay: Hemolysis assay; assay type: cell-based
Outline: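 Washed Sprague-Dawley rat erythrocytes (10% suspension in PBS pH 7.4) mixed with peptoids (0–100 µM), 60 min at 37 °C; supernatant A540 expressed as % of 1% Triton X-100 lysis. HC10/HC50 are concentrations giving 10%/50% hemolysis; Hmax is hemolysis at 100 µM.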

Structure (SMILES)	HPLC elution [1] [% MeCN]	Hmax (100 µM) [2] [%]	HC10 ([2]; pH 7.4) [µM]	HC50 ([2]; pH 7.4) [µM]	HC10 ([2]; red cells of rat) [µM]	HC50 ([2]; red cells of rat) [µM]
C[C@@H](c1ccccc1)N(CC(N)=O)C(=O)CN(C(=O)CN(CCCCN)C(=O)CN(C(=O)CN(C(=O)CN(CCCCN)C(=O)CN(C(=O)CN(C(=O)CN(CCCCN)C(=O)CN(C(=O)CN(CCCCN)C(=O)CN(CCCCN)C(=O)CN(CCc1c[nH]c2ccccc12)C(=O)CNCCc1c[nH]c2ccccc12)[C@@H](C)c1ccccc1)[C@@H](C)c1ccccc1)[C@@H](C)c1ccccc1)[C@@H](C)c1ccccc1)[C@@H](C)c1ccccc1)[C@@H](C)c1ccccc1 [peptoid 36]	52.4	89.1±3.4	15.3	39.4		
C[C@@H](c1ccccc1)N(CC(=O)N(CCCCN)CC(=O)N(CC(=O)N(CC(=O)N(CCCCN)CC(=O)N(CC(=O)N(CC(=O)N(CCCCN)CC(N)=O)[C@@H](C)c1ccccc1)[C@@H](C)c1ccccc1)[C@@H](C)c1ccccc1)[C@@H](C)c1ccccc1)C(=O)CN(C(=O)CN(CCCCN)C(=O)CN(CCc1c[nH]c2ccccc12)C(=O)CNCCc1c[nH]c2ccccc12)[C@@H](C)c1ccccc1 [peptoid 37] (H-[Gly(N(CH2)2(3-indolyl))][Gly(N(CH2)2(3-indolyl))][Nlys][Nspe][Nspe][Nlys][Nspe][Nspe][Nlys][Nspe][Nspe][Nlys]-NH2)	52.7		21.1	57.0	13.2	38.6
C[C@@H](c1ccccc1)N(CC(=O)N(CCCCN)CC(=O)N(CCCCN)CC(=O)N(CC(=O)N(CC(=O)N(CCCCN)CC(=O)N(CC(=O)N(CC(=O)N(CCCCN)CC(N)=O)[C@@H](C)c1ccccc1)[C@@H](C)c1ccccc1)[C@@H](C)c1ccccc1)[C@@H](C)c1ccccc1)C(=O)CN(CCCCN)C(=O)CN(CCc1c[nH]c2ccccc12)C(=O)CNCCc1c[nH]c2ccccc12 [peptoid 38] (H-[Gly(N(CH2)2(3-indolyl))][Gly(N(CH2)2(3-indolyl))][Nlys][Nspe][Nlys][Nlys][Nspe][Nspe][Nlys][Nspe][Nspe][Nlys]-NH2)	47.8	5.9±0.5	> 100	> 100		
C[C@@H](c1ccccc1)N(CC(=O)N(CCCCN)CC(=O)N(CC(=O)N(CC(=O)N(CCCCN)CC(=O)N(CCCCN)CC(=O)N(CC(=O)N(CCCCN)CC(=O)N(CCc1c[nH]c2ccccc12)CC(=O)N(CCc1c[nH]c2ccccc12)CC(N)=O)Cc1ccccc1)[C@@H](C)c1ccccc1)[C@@H](C)c1ccccc1)C(=O)CN(C(=O)CNCCCCN)[C@@H](C)c1ccccc1 [peptoid 39] (H-[Nlys][Nspe][Nspe][Nlys][Nspe][Nspe][Nlys][Nlys][Nphe][Nlys][Gly(N(CH2)2(3-indolyl))][Gly(N(CH2)2(3-indolyl))]-NH2)	47.8	10.2±0.3	100	> 100		
C[C@@H](c1ccccc1)N(CC(=O)N(CCCCN)CC(=O)N(CCc1c[nH]c2ccccc12)CC(=O)N(CCc1c[nH]c2ccccc12)CC(N)=O)C(=O)CN(CCCCN)C(=O)CN(CCCCN)C(=O)CN(Cc1ccccc1)C(=O)CN(Cc1ccccc1)C(=O)CN(CCCCN)C(=O)CN(C(=O)CN(C(=O)CNCCCCN)[C@@H](C)c1ccccc1)[C@@H](C)c1ccccc1 [peptoid 40] (H-[Nlys][Nspe][Nspe][Nlys][Nphe][Nphe][Nlys][Nlys][Nspe][Nlys][Gly(N(CH2)2(3-indolyl))][Gly(N(CH2)2(3-indolyl))]-NH2)	47.5	8.9±0.2	> 100	> 100		
C[C@@H](c1ccccc1)N(CC(=O)N(CCCCN)CC(=O)N(CCc1c[nH]c2ccccc12)CC(=O)N(CCc1c[nH]c2ccccc12)CC(N)=O)C(=O)CN(CCCCN)C(=O)CN(CCCCN)C(=O)CN(C(=O)CN(C(=O)CN(CCCCN)C(=O)CN(Cc1ccccc1)C(=O)CN(Cc1ccccc1)C(=O)CNCCCCN)[C@@H](C)c1ccccc1)[C@@H](C)c1ccccc1 [peptoid 41] (H-[Nlys][Nphe][Nphe][Nlys][Nspe][Nspe][Nlys][Nlys][Nspe][Nlys][Gly(N(CH2)2(3-indolyl))][Gly(N(CH2)2(3-indolyl))]-NH2)	47.5	7.1±0.1	> 100	> 100		
C[C@@H](c1ccccc1)N(CC(=O)N(CCCCN)CC(=O)N(CC(=O)N(CC(=O)N(CCCCN)CC(=O)N(CC(=O)N(CC(=O)N(CCCCN)CC(=O)N(CC(=O)N(CC(=O)N(CC(N)=O)Cc1ccccc1)[C@@H](C)c1ccccc1)[C@@H](C)c1ccccc1)[C@@H](C)c1ccccc1)[C@@H](C)c1ccccc1)[C@@H](C)c1ccccc1)[C@@H](C)c1ccccc1)C(=O)CN(C(=O)CN(CCCCN)C(=O)CNCc1ccccc1)[C@@H](C)c1ccccc1 [peptoid 42] (H-[Nphe][Nlys][Nspe][Nspe][Nlys][Nspe][Nspe][Nlys][Nspe][Nspe][Nlys][Nspe][Nspe][Nphe]-NH2)	57.7	105.9±1.1	< 3.1	6.6		
C[C@@H](c1ccccc1)N(CC(N)=O)C(=O)CN(C(=O)CN(CCCCN)C(=O)CN(C(=O)CN(C(=O)CN(CCCCN)C(=O)CN(C(=O)CN(C(=O)CN(CCCCN)C(=O)CN(C(=O)CN(C(=O)CN(CCCCN)C(=O)CN(Cc1ccccc1)C(=O)CNCc1ccccc1)[C@@H](C)c1ccccc1)[C@@H](C)c1ccccc1)[C@@H](C)c1ccccc1)[C@@H](C)c1ccccc1)[C@@H](C)c1ccccc1)[C@@H](C)c1ccccc1)[C@@H](C)c1ccccc1 [peptoid 43]	56.8	105.6±3.8	< 3.1	6.4		
C[C@@H](c1ccccc1)N(CC(=O)N(CCCCN)CC(=O)N(CC(=O)N(CC(=O)N(CCCCN)CC(=O)N(CC(=O)N(CC(=O)N(CCCCN)CC(=O)N(CC(=O)N(CC(N)=O)Cc1ccccc1)Cc1ccccc1)[C@@H](C)c1ccccc1)[C@@H](C)c1ccccc1)[C@@H](C)c1ccccc1)[C@@H](C)c1ccccc1)C(=O)CN(C(=O)CNCCCCN)[C@@H](C)c1ccccc1 [peptoid 44] (H-[Nlys][Nspe][Nspe][Nlys][Nspe][Nspe][Nlys][Nspe][Nspe][Nlys][Nphe][Nphe]-NH2)	53.1	97.9±3.7	6.3	28.6		
C[C@@H](c1ccccc1)N(CC(N)=O)C(=O)CN(C(=O)CN(CCCCN)C(=O)CN(C(=O)CN(C(=O)CN(CCCCN)C(=O)CN(C(=O)CN(C(=O)CN(CCCCN)C(=O)CN(Cc1ccccc1)C(=O)CN(Cc1ccccc1)C(=O)CNCCCCN)[C@@H](C)c1ccccc1)[C@@H](C)c1ccccc1)[C@@H](C)c1ccccc1)[C@@H](C)c1ccccc1)[C@@H](C)c1ccccc1 [peptoid 46]	53.7	90.8±2.7	6.9	36.5		
C[C@@H](c1ccccc1)N(CC(N)=O)C(=O)CN(CCCCN)C(=O)CN(CCCCN)C(=O)CN(C(=O)CN(C(=O)CN(CCCCN)C(=O)CN(C(=O)CN(C(=O)CN(CCCCN)C(=O)CN(Cc1ccccc1)C(=O)CN(Cc1ccccc1)C(=O)CNCCCCN)[C@@H](C)c1ccccc1)[C@@H](C)c1ccccc1)[C@@H](C)c1ccccc1)[C@@H](C)c1ccccc1 [peptoid 47]	47.8	4.8±0.2	> 100	> 100		
C[C@H](NCC(=O)N(CCCCN)CC(=O)N(CC(=O)N(CC(=O)N(CCCCN)CC(=O)N(CC(=O)N(CC(=O)N(CCCCN)CC(=O)N(CC(=O)N(CC(=O)N(CCCCN)CC(=O)N(CC(N)=O)[C@@H](C)c1ccccc1)[C@@H](C)c1ccccc1)[C@@H](C)c1ccccc1)[C@@H](C)c1ccccc1)[C@@H](C)c1ccccc1)[C@@H](C)c1ccccc1)[C@@H](C)c1ccccc1)c1ccccc1 [peptoid 48] (H-[Nspe][Nlys][Nspe][Nspe][Nlys][Nspe][Nspe][Nlys][Nspe][Nspe][Nlys][Nspe]-NH2)	53.4	79.9±3.6	25.7	48.4		
C[C@@H](c1ccccc1)N(CC(=O)N(CCCCN)CC(=O)N(CC(=O)N(CC(=O)N(CCCCN)CC(=O)N(CC(=O)N(CC(=O)N(CCCCN)CC(=O)N(CCCCN)CC(N)=O)[C@@H](C)c1ccccc1)[C@@H](C)c1ccccc1)[C@@H](C)c1ccccc1)[C@@H](C)c1ccccc1)C(=O)CN(C(=O)CNCCCCN)[C@@H](C)c1ccccc1 [peptoid 49] (H-[Nlys][Nspe][Nspe][Nlys][Nspe][Nspe][Nlys][Nspe][Nspe][Nlys][Nlys]-NH2)	46.6	0.3±0.3	> 100	> 100		
C[C@@H](c1ccccc1)N(CC(=O)N(CCCCN)CC(=O)N(CC(=O)N(CC(=O)N(CCCCN)CC(=O)N(CC(=O)N(CC(=O)N(CCCCN)CC(=O)N(CC(=O)N(CC(=O)N(CCCCN)CC(=O)N(CCCCN)CC(N)=O)[C@@H](C)c1ccccc1)[C@@H](C)c1ccccc1)[C@@H](C)c1ccccc1)[C@@H](C)c1ccccc1)[C@@H](C)c1ccccc1)[C@@H](C)c1ccccc1)C(=O)CNCCc1c[nH]c2ccccc12 [peptoid 61] (H-[Gly(N(CH2)2(3-indolyl))][Nspe][Nlys][Nspe][Nspe][Nlys][Nspe][Nspe][Nlys][Nspe][Nspe][Nlys][Nlys]-NH2)	51.2	79.9±0.7	19.3	65.4		
